Source: patent publication US20070074967A1, “Photodegradable protective group” (The University of Tokyo, priority 2005, published 2007)

Test: Photodeprotection by irradiation with light of 470 nm (absorption spectra, fluorescence)
Format: physicochemical
Conditions: for Change of absorption peaks around 450 nm with the light irradiation / Change of absorption peaks around 490 nm with the light irradiation (release of 6-hydroxy-9-o-toluylxanthen-3-one by deprotection): 3 μM in 0.1 M sodium phosphate buffer (pH 7.4), 10% N,N-dimethylformamide, light of 470 nm, argon laser, FIG. 1
Experimental: 3,5-DNB-2-Me TG obtained in Example 1 and o-NB-2-Me TG obtained in Example 2 were each dissolved in 0.1 M sodium phosphate buffer (pH 7.4) at a concentration of 3 μM. As a cosolvent, 10% N,N-dimethylformamide was added.
Light of 470 nm was irradiated by using an argon laser. One cycle consisted of 128 pulses×10 times.
It can be understood that the peaks around 450 nm observed for 3,5-DNB-2-Me TG and o-NB-2-Me TG were lowered, and the peaks around 490 nm were highered with the light irradiation. This is because 6-hydroxy-9-o-toluylxanthen-3-one was released from the compounds by deprotection.

SMILES	Change of absorption peaks around 450 nm with the light irradiation	Change of absorption peaks around 490 nm with the light irradiation (release of 6-hydroxy-9-o-toluylxanthen-3-one by deprotection)	Fluorescence provided by released 6-hydroxy-9-o-toluylxanthen-3-one on irradiation (irradiated with light of 470 nm, FIG. 2)
Cc1ccccc1-c1c2ccc(=O)cc-2oc2cc(OCc3cc([N+](=O)[O-])cc([N+](=O)[O-])c3)ccc12 [3,5-DNB-2-Me TG, 6-(3,5-dinitrobenzyloxy)-9-o-toluylxanthen-3-one]	lowered	highered	increase of fluorescence
Cc1ccccc1-c1c2ccc(=O)cc-2oc2cc(OCc3ccccc3[N+](=O)[O-])ccc12 [o-NB-2-Me TG, 6-(2-nitrobenzyloxy)-9-o-toluylxanthen-3-one]	lowered	highered	
